The results in this text go back to PubChem BioAssay (NCI).

Several values for one entry are separate records, joined by “and”; a condition that tells them apart may be missing. Equal entries are not always repeated.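 Following 48 hours of exposure in 96-well plates, responses at five concentrations were used to interpolate endpoints linearly. GI50 = concentration required for 50% inhibition of growth. The concentration for full growth arrest is given as TGI.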 Where a SMILES comes first, the peptide text is derived from it. [ ]: non-standard residue; d: D form. 2Nal = N[CH](Cc1ccc2ccccc2c1)C(=O)O Bounds are passed on as bounds.

Among the test systems are HCT-116 colon; HCT-15 colon; HOP-92 NSCLC; K-562 leukemia; KM12 colon; MCF7 breast; MDA-MB-231 breast; PC-3 prostate; SK-OV-3 ovarian; UACC-257 melanoma.
What all share (experiment): growth of human tumour cells (NCI), 48 h

In the case of `O=C1Nc2ccccc2SC1C1SC(=S)N(Cc2ccccc2)C1=O` (stereo not drawn), the GI50 was 2.45 µM with HCT-116 colon; 3.37 µM in the experiment on HCT-15 colon; 4.21 µM in the experiment on HOP-92 NSCLC; 2.65 µM in the experiment with K-562 leukemia; 0.458 µM in the experiment with KM12 colon; 1.21 µM with MCF7 breast. Besides, the GI50 was 3.65 µM with MDA-MB-231 breast, 5.74 µM with PC-3 prostate, 22.9 µM in the experiment with SK-OV-3 ovarian and 20.1 µM in the experiment on UACC-257 melanoma. The TGI in the experiment on HCT-116 colon was 9.28 µM; with HCT-15 colon it was 16 µM; in the experiment with HOP-92 NSCLC it was 24.7 µM; with K-562 leukemia it was above 81.1 µM; in the experiment with KM12 colon, 1.99 µM; with MCF7 breast, 14.4 µM. The TGI is 12.9 µM with MDA-MB-231 breast, above 43 µM with PC-3 prostate, above 100 µM in the experiment on SK-OV-3 ovarian and 39 µM in the experiment on UACC-257 melanoma.

In the case of `C=CC(=O)Nc1cc2c(Nc3ccc(OCc4ccccn4)c(Cl)c3)ncnc2cc1OCCN1CCOCC1`, the GI50 with HCT-116 colon was 2.99 µM; with HCT-15 colon, 2.49 µM; in the experiment on HOP-92 NSCLC, 1.02 µM; in the experiment with K-562 leukemia it was 2.79 µM; in the experiment with KM12 colon, 5.04 µM; with MDA-MB-231 breast, 2.17 µM. Also, the values for the GI50 in the experiment with PC-3 prostate and with UACC-257 melanoma were 4.28 µM and 10.6 µM, respectively. For the same compound, the TGI in the experiment on HCT-116 colon is 14.5 µM; with HCT-15 colon, 14.9 µM; in the experiment on HOP-92 NSCLC, 9.06 µM; in the experiment on K-562 leukemia, above 100 µM; in the experiment on KM12 colon it was above 100 µM; in the experiment with MCF7 breast it was above 100 µM. Also, the TGI in the experiment with MDA-MB-231 breast is 34.2 µM; in the experiment on PC-3 prostate, above 100 µM; in the experiment on UACC-257 melanoma it was above 100 µM.

Regarding `C[C@]12CC[C@H]3[C@@H](C[C@@H]4SC(Nc5cccc(F)c5)=N[C@@]45CC(=O)CC[C@]35C)[C@@H]1CCC2=O`, the GI50 is 1.59 µM in the experiment with HCT-116 colon; 1.58 µM with HCT-15 colon; 2.25 µM in the experiment with HOP-92 NSCLC; 3 µM in the experiment with KM12 colon; 1.37 µM in the experiment with MCF7 breast; 2.11 µM with MDA-MB-231 breast. Besides, the GI50 is 1.88 µM in the experiment with PC-3 prostate, 2.33 µM in the experiment with SK-OV-3 ovarian and 5.47 µM in the experiment on UACC-257 melanoma. In addition, the TGI with HCT-116 colon was 3.24 µM; in the experiment with HCT-15 colon it was 4.08 µM; in the experiment on HOP-92 NSCLC it was 4.17 µM; with KM12 colon it was 12.4 µM; in the experiment on MCF7 breast, 3.28 µM; in the experiment on MDA-MB-231 breast it was 4.59 µM. The TGI in the experiment with PC-3 prostate came out at 3.87 µM; in the experiment with SK-OV-3 ovarian it was 6.1 µM; with UACC-257 melanoma, 64.5 µM.

With `CC1=CC(C)C(O)C(C)/C=C/C(O)C/C=C(/C)C(=O)CC(O)C(C)\C=C/C=C/C=C\C(=O)NC2=C(O)c3cc(C)c(O)c(c3C(=O)C2=O)C1=O` (stereo not drawn), the TGI is above 100 µM with HCT-116 colon; above 100 µM in the experiment on HCT-15 colon; above 100 µM in the experiment on HOP-92 NSCLC; above 100 µM with KM12 colon; 65 µM in the experiment on MCF7 breast; above 100 µM in the experiment with MDA-MB-231 breast. In addition, the TGI with PC-3 prostate and with UACC-257 melanoma was above 100 µM each time.

As to `CCOC(=O)c1cc(C(=O)c2cc(OC)cc(OC)c2)n2ncccc12`, the GI50 in the experiment on HCT-15 colon was 0.587 µM; with HOP-92 NSCLC it was 24.9 µM; in the experiment with K-562 leukemia, 0.539 µM; with MCF7 breast, 1.31 µM; in the experiment on MDA-MB-231 breast, 8.18 µM; in the experiment on PC-3 prostate it was 7.45 µM. Also, the GI50 in the experiment with SK-OV-3 ovarian was 4.9 µM; with UACC-257 melanoma, 67.1 µM. The TGI in the experiment on HCT-15 colon, in the experiment with HOP-92 NSCLC, in the experiment on K-562 leukemia, in the experiment on MCF7 breast, with MDA-MB-231 breast and in the experiment with PC-3 prostate was above 100 µM each time. Moreover, the TGI in the experiment on SK-OV-3 ovarian and in the experiment on UACC-257 melanoma was above 100 µM in each case.

With `CC(NC(=O)C(N)Cc1ccccc1)C(=O)NC(Cc1ccc(O)cc1)C(=O)NC(Cc1c[nH]c2ccccc12)C(=O)NC(CCCCN)C(=O)NC(C(=O)NC(C)C(=O)NC(Cc1ccc2ccccc2c1)C(N)=O)C(C)C` (stereo not drawn) (H-FAYWKVA[2Nal]-NH2; configuration not given here), the GI50 in the experiment with HCT-116 colon is 33.9 µM; in the experiment with HCT-15 colon it was 22.1 µM; in the experiment with K-562 leukemia, 16.9 µM; in the experiment on KM12 colon it was 21.9 µM; with UACC-257 melanoma, above 100 µM. The TGI in the experiment with HCT-116 colon was above 100 µM; with HCT-15 colon it was > 12.5 µM and 61.8 µM; in the experiment with K-562 leukemia, > 12.5 µM and 30.5 µM; with KM12 colon, > 12.5 µM and 53.3 µM; in the experiment with MCF7 breast, above 12.5 µM; in the experiment on MDA-MB-231 breast, above 12.5 µM. In addition, the TGI in the experiment with PC-3 prostate is above 12.5 µM; in the experiment with SK-OV-3 ovarian, above 12.5 µM; in the experiment on UACC-257 melanoma, above 100 µM.
